# Measurements from patent US20200323954A1, “METHODS AND COMPOSITIONS FOR REDUCING GUT ISCHEMIA/REPERFUSION-INDUCED INJURY” (PanTheryx, Inc., priority 2019, published 2020).
# “Also recorded” adds a separate entry of the source. Marks after values point to notes of the source that are not given here.
# Tests used:
# [1] = tested on: NSAID-induced apoptosis; details: cited from earlier work
# [2] = tested on: renal tissue; assay: Gut I/R model, renal tissue; details: kidney, I/R + PSTI 20 μg/kg ip, mean ± SEM
# [3] = tested on: AGS cells; assay: Apoptotic and protective pathways after H/R in AGS cells; assay type: cell-based, human; details: Hyp 1 h/Rep 24 h + PSTI, mean +/− SEM
# Experimental: (§1) Hypoxia (Ischemia)/Normoxia (Reperfusion) (H/R) protocols for in vitro studies: For all experiments AGS, Caco-2 and RIE1 cells were set up in plates as described in specific methods. Cells were used at 70-80% confluence for cell injury/death assessment and as confluent monolayers for permeability studies. To induce “ischemia”, cells were placed in a hypoxic incubator (2% 02) for specified time and to mimic reperfusion, cells were placed back in a normoxic (21% 02) incubator for specified time. All treatments were duplicated in a second set of identical plates under normoxic conditions throughout the same test period as controls. To determine optimum conditions for the in vitro studies, pilot studies were performed.
# [4] = tested on: AGS cells; assay: Cell viability (MTT) assay after hypoxia/reperfusion (H/R); assay type: cell-based, human; details: for cell viability in the MTT assay: 4 h hypoxia + 24 h reperfusion
# Experimental: as §1
# Cell viability (MTT) assay: Cell viability following H/R was assessed using an MTT assay (3-(4,5-dimethylthiazol-2-yl)-2,5-diphenyltetrazolium bromide) according to Marshall et al., Growth Regul. 1995; 5(2):69-84. The principal of the assay is that viable cells contain NAD(P)H-dependent oxidoreductase enzymes which reduce the MTT reagent to formazan which can be measured spectrophotometrically. At the end of the H/R period, 5 mg/ml MTT in PBS was added to each well of the 96 well plates and incubated at 37° C. for 4 hours, the medium was replaced with 150 μl of DMSO and the absorbance measured at 490 nm. Cell viability was expressed as percentage of the equivalent normoxic control, all results are expressed as mean+/−SEM of six wells.
# Example 1A: Dose response study: To examine the effect of PSTI on H/R-induced cell injury in vitro, cells were set up in 96 well plates and pre-incubated in SFM containing glucose, with or without 5, 10 or 15 μg/ml PSTI for 1 hour (i.e. PSTI pre-treatment). These concentrations of PSTI were chosen based on previous studies examining cell migration (Marchbank et al., 2007, Am J Pathol 171(5):1462-73). The medium was replaced with SFM without glucose and placed in the hypoxia incubator for 4 hours. At the end of the hypoxia period, medium was replaced with SFM containing glucose for 24 hours at normoxia for the reperfusion period.
# Example 1B: Efficacy of PSTI given pre-, during- or post-hypoxic period. The potential benefits of giving PSTI prior to, during or following the hypoxic period were compared. Cells were either pre-treated with 10 μg/ml PSTI for the 1 hour before hypoxia (Pre), treated with 10 μg/ml PSTI during hypoxia (During) or treated with 10 μg/ml PSTI during the reperfusion stage (Post). Cell Viability (MTT assay) and cell damage (LDH assay) were assessed. Cells were pre-treated with 10 μg/ml PSTI for the 1 hour before hypoxia (Pre), at the time of the start of hypoxic period (During), or added at the start of the reperfusion stage (Post). Cell Viability (MTT assay) and cell damage (LDH assay) were assessed.
# [5] = tested on: Caco-2 cells; assay: Apoptotic and protective pathways after H/R in Caco-2 cells; assay type: cell-based, human
# Experimental: as §1
# Cleared cell lysates from I/R experiments in Caco-2 cells were assessed for levels of the apoptotic molecules Caspase 3 (FIG. 5A), Caspase 9 (FIG. 5I), Baxα (FIG. 5B) and Bcl2 (FIG. 5C). HIF1α (FIG. 5Δ), VEGF (FIG. 5E), hSP70 (FIG. 5F), ICAM1 (FIG. 5G) and the tight junction molecules ZO1 (FIG. 5H) and Claudin1 (FIG. 5J) levels were also analysed.
# [6] = tested on: 90% small intestine (SI) tissue (non-clamped segment of bowel); assay: Gut I/R model, non-clamped 90% SI site; details: 90% SI non-clamped, mean ± SEM
# [7] = tested on: DSS-induced colitis; details: rats, PSTI administration; cited from earlier work
# [8] = tested on: NSAID-induced gastric injury; details: rats, PSTI administration; cited from earlier work
# [9] = tested on: human colonic carcinoma HT29 cells; details: HT29 cells in vitro; cited from earlier work
# [10] = tested on: lung tissue; assay: Gut I/R model, lung tissue
# [11] = Caco-2, 1 h or 4 h hypoxia + 24 h normoxia, PSTI 1 h before, vs H/R without PSTI
# [12] = normoxic, any of the cell lines (data not shown)
# [13] = IR + PSTI 20 μg/kg ip, mean ± SEM
# [14] = PSTI 20 μg/kg ip, vs I/R without PSTI
substance,measurement,setting,value
pancreatic secretory trypsin inhibitor (DSLGREAKCYNELNGCTKIYDPVCGTDGNTYPNECVLCFENRKRQTSILIQKSGPC; listed as Homo sapiens) [PSTI],NSAID-induced apoptosis,[1],reduces NSAID-induced apoptosis
same,Baxα,[2],5.61 ± 0.63 pg/μg total protein
same,Bcl2,[2],66.37 ± 4.89 pg/μg total protein
same,Caspase 3 activity,[2],0.069 ± 0.019 Change in absorbance
same,Caspase 9 activity,[2],0.053 ± 0.010 Change in absorbance
same,Claudin 1,[2],0.154 ± 0.016 pg/μg total protein
same,MDA,[2],0.47 ± 0.047 nmol/μg of protein
same,ZO1,[2],0.151 ± 0.008 pg/μg total protein
same,hSP70,[2],36.6 ± 2.96 pg/μg total protein
same,Baxα,[3],110.9 +/− 2.79 * $ % normoxic
same,Bcl2,[3],49.3 +/− 1.91 ** $$ % normoxic
same,Caspase 3,[3],228.2 +/− 18.72 * $ % normoxic
same,Caspase 9,[3],119.8 +/− 13.25 * $ % normoxic
same,Claudin 1,[3],77.3 +/− 3.63 ** $$ % normoxic
same,HIF1α,[3],145.2 +/− 0.66 ** $$ % normoxic
same,ICAM1,[3],113.6 +/− 0.12 **^ % normoxic
same,VEGF,[3],125.82 +/− 2.0 ** $$ % normoxic
same,ZO1,[3],82.1 +/− 0.98 ** $ % normoxic
same,hSP70,[3],132.9 +/− 1.05 ** $ % normoxic
same,cell viability in the MTT assay,"[4]; AGS, PSTI 10 μg/ml 1 h before hypoxia (Pre), % of normoxic control, H/R without PSTI 52±2%",78±2%
same,cell viability in the MTT assay,"[4]; AGS, PSTI 10 μg/ml during hypoxia period",66±3%
same,cell viability in the MTT assay,"[4]; AGS, PSTI 10 μg/ml during the post-hypoxia period",49±1%
same,improvement of survival after H/R,"[4]; AGS, RIE1 and Caco-2 cells, hypoxia/reperfusion 4 h+24 h, PSTI 10 μg/ml prior or during hypoxic period, p<0.01",50%
same,optimum concentration for reducing cell death (MTT and LDH assays),"[4]; PSTI 5, 10 or 15 μg/ml given 1 h prior to H/R",10 µg/mL
same,effect on cell viability / cell death after H/R vs serum free medium,[4]; PSTI added before (or during) H/R,reduced hypoxia-reoxygenation-induced cell death; also recorded: significantly increased % cell viability
same,cell viability of cells not exposed to H/R,"[4]; normoxia, PSTI 10 microgram per ml",no change in viability or LDH; also recorded: no change in viability
same,further increase in HIF1α above the 42% increase induced by H/R,"[5]; 4 h hypoxia+24 h reoxygenation, cells pre-treated with PSTI (FIG. 5D)",11%
same,further increase in VEGF above the 34% increase caused by H/R,"[5]; 4 h hypoxia+24 h reoxygenation, co-presence of PSTI (FIG. 5E)",15%
same,increase in hSP70 after H/R with PSTI,"[5]; 4 h hypoxia+24 h reoxygenation, H/R alone about 63% (FIG. 5F)",about 80%
same,Baxα activity,[5]; [11],significantly truncated; also recorded: significantly decreased Baxα activity
same,Bcl2 activity,[5]; [11],this effect was truncated; also recorded: significantly attenuated reduction in Bcl2 activity
same,Caspase 3 activity,[5]; [11],significantly decreased Caspase 3 activity
same,Caspase 9 activity,[5]; [11],significantly decreased Caspase 9 activity
same,Claudin1 activity,[5]; [11],significantly attenuated reduction in Claudin1 activity
same,HIF1α activity,[5]; [11],significantly increased HIF1α activity
same,ICAM1 activity,[5]; [11],not influenced by the presence of PSTI; also recorded: did not significantly affect ICAM1 activity
same,VEGF activity,[5]; [11],significantly increased VEGF activity
same,ZO1 activity,[5]; [11],significantly attenuated reduction in ZO1 activity
same,hSP70 activity,[5]; [11],significantly increased hSP70 activity
same,truncation of the H/R-induced fall in ZO1 and Claudin1,"[5]; after 4 hours of hypoxia (FIG. 5H, 5J)",about 50%
same,"Caspase 3, 9, Baxα or Bcl2 under normoxic conditions",[5]; [12],"no effect on Caspase 3, 9, Baxα or Bcl2"
same,HIF1α or VEGF under normoxic conditions,[5]; [12],no effect on HIF1α or VEGF
same,ICAM1 levels under normoxic conditions,"[5]; normoxic, any of the cell lines tested (data not shown)",no effect on ICAM1 levels
same,Histological score (0-5),"[6]; I/R + PSTI 20 μg/kg ip 1 h before clamping, 30 min ischemia/3 h reperfusion",0.142 ± 0.142
same,Bcl2,[6]; I/R + PSTI 20 μg/kg ip,5.55 ± 1.00 pg/μg total protein
same,Caspase 3,[6]; I/R + PSTI 20 μg/kg ip,0.021 ± 0.007 Change in absorbance
same,Caspase 9,[6]; I/R + PSTI 20 μg/kg ip,0.014 ± 0.00052 Change in absorbance
same,Claudin 1,[6]; I/R + PSTI 20 μg/kg ip,0.152 ± 0.014 pg/μg total protein
same,ZO1,[6]; I/R + PSTI 20 μg/kg ip,0.17 ± 0.008 pg/μg total protein
same,DSS-induced colitis,[7],reduces NSAID-induced gastric injury and DSS-induced colitis
same,NSAID-induced gastric injury,[8],reduces NSAID-induced gastric injury
same,cell migration,[9],stimulate cell migration
same,proliferation,[9],not proliferation
same,Caspase 3,"[10]; IR + PSTI 20 μg/kg ip 1 h before clamping, mean ± SEM",0.092 ± 0.022 Change in absorbance
same,Baxα,[10]; [13],3.74 ± 0.21 pg/μg total protein
same,Bcl2,[10]; [13],45.66 ± 3.79 pg/μg total protein
same,Caspase 9,[10]; [13],0.063 ± 0.004 Change in absorbance
same,Claudin 1,[10]; [13],9.63 ± 0.40 pg/μg total protein
same,ZO1,[10]; [13],8.15 ± 0.80 pg/μg total protein
same,histological damage of lung,"[10]; PSTI 20 μg/kg ip 1 h before clamping, vs I/R without PSTI",markedly truncated these effects; also recorded: protective effects; also recorded: markedly truncated the adverse effects; also recorded: significantly reduced histological scoring of lung damage
same,MDA levels,[10]; [14],this increase was truncated; also recorded: significantly reduced MDA levels
same,MPO levels (neutrophil infiltration),[10]; [14],reduced neutrophil infiltration of the lungs; also recorded: significantly reducing these changes; also recorded: significantly reduced MPO levels
